Data: patent publication US10344032B2, “Agents for treating neurogenic inflammation and neuropathic hyperalgesia related disorders” (PÉCSI TUDOMÁNYEGYETEM, priority 2014, dated 2019)

What was measured:
[1] = tested on: rat; assay: Mustard oil-induced acute neurogenic inflammation in the paw skin of the rat (Evans blue leakage); type: in vivo; details: 100 μg/kg p.o. 60 min before 1% mustard oil; vs vehicle-treated control; listed as BST-1693
Method: Deep anaesthesia was performed with sodium-thiopental (50 mg/kg i.p.). Both hindlegs of the rats were acutely denervated (the sciatic and the saphenous nerves were cut 30 min before the induction of inflammation) to avoid the influence of reflex mechanisms. Inflammation in the dorsal skin of the hindpaws was evoked by topical application of 1% mustard oil dissolved in paraffin oil. This compound selectively activates capsaicin-sensitive peptidergic fibres through the TRPA1 ion channel, therefore induces acute inflammatory reaction with exclusively neurogenic mechanisms via the release of pro-inflammatory sensory neuropeptides, such as substance P and CGRP. Extravasation of plasma albumin was measured by the Evans blue leakage method (see FIG. 2). Evans blue (50 mg/kg) which binds to plasma albumine, was injected i.v. and neurogenic inflammation was induced 5 min later. […] The amount of the accumulated Evans blue, which quantitatively correlates with the intensity of plasma extravasation, was expressed as μg dye/g wet skin (Helyes et at, 1997, 2001, 2006; Borzsei et al., 2008). […]
Extravasation of plasma albumin in the dorsal skin of the hindpaws was measured by the Evans blue leakage method. […] The skin of the hindpaws was removed, their weight was measured and the extravasated dye was extracted with formamide at room temperature during 72 h for photometric determination at 620 nm. […]

[2] = Analgesic and anti-inflammatory models shown within the examples; details: in vivo
[3] = biological target: T1, sst4 receptor (Homo sapiens, UniProt P31391); assay: Somatostatin sst4 receptor-coupled G-protein activation assay ([35S]GTPγS binding); type: biochemical; details: 100 nM concentration; membrane fractions of CHO cells stably expressing the sst4 receptor; percentage over specific binding in absence of agonists
T1 construct: expressed in transfected cells
T1 sequence (P31391 whole entry): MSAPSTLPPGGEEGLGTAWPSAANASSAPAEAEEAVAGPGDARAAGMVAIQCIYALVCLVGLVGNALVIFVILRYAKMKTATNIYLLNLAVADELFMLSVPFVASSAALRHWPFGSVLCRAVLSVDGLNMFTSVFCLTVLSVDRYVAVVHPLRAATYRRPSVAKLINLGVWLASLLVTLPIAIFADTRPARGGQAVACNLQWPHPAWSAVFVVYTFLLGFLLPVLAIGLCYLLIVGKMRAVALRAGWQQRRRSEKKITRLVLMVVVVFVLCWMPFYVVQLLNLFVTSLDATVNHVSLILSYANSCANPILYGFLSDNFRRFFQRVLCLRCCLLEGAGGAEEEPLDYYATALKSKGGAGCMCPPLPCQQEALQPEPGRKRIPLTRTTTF
Excerpt: [^35S]GTPγS binding assay is a functional test determining agonist-induced and receptor-mediated G-protein activation which is based on the increase in guanine nucleotide exchange at G-proteins upon agonist stimulation. The interaction of a G protein-coupled receptor (GPCR) with the G protein is the first step in the transduction of the receptor binding signal to the activation of the second-messenger systems. We measured the level of [^35S]-GTPγS bound to the α subunit of G proteins and determined the efficacy of the compounds. Compounds which elicited 200% [^35S]GTPγS binding in nanomolar concentration were considered effective agonist. The examined compounds were added into the medium in 1 nM, 10 nM, 100 nM 1 μM and 10 μM concentrations.
Membrane fractions were prepared from CHO cells stably expressing the sst4 receptor in Tris-EGTA buffer (50 mM Tris-HCl, 1 mM EGTA, 3 mM MgCl2, 100 mM NaCl, pH 7.4). These membrane fractions (˜10 μg of protein/sample) were incubated at 30° C. for 60 min in the same Tris-EGTA buffer containing [^35S]GTPγS (0.05 nM) and increasing concentrations (10^−9 to 10^−5 M) of test compounds in the presence of 30 μM GDP in a final volume of 500 μl. Non-specific binding was determined in the presence of 10 μM unlabelled GTPγS. Total binding was measured in the absence of test compounds. To calculate the specific binding, non-specific binding was subtracted from total binding. The reaction was terminated by filtrating the samples through Whatman GF/B glass fiber filters. Using 48-well Slot Blot Manifold from Cleaver Scientific filters were washed three times with ice-cold 50 mM Tris-HCl buffer (pH 7.4). After drying for 60 min at 37° C., radioactivity was measured in scintillation liquid in a Packard Tri-Carb 2800 TR scintillation counter. Test compound-induced G-protein stimulation was given as percentage over the specific [^35S]GTPγS binding observed in the absence of agonists.

[4] = tested on: rat; assay: Plantar incision-induced heat allodynia (increasing temperature water bath), postoperative pain model; type: in vivo; details: 100 μg/kg p.o., measured 60 min later; one day after plantar incision
Method: Rats were anaesthesized with sodium-pentobarbital (Euthasol, 40 mg/kg i.p.) and a 1 cm longitudinal incision was made through the skin, fascia and muscle of the plantar aspect of the hindpaw. Significant decrease of both the thermonociceptive and mechanonociceptive thresholds (heat and mechanical allodynia) of the paw develops 1 day after this procedure.
One hundred and forty five (145) female Wistar rats (150-250 g) kept in the Animal House of the University of Pecs in a temperature-controlled room provided with a 12-hour light-dark cycle, standard rat chow and water ad libitum were used in this experimental series. […] Touch sensitivity was measured with a dynamic plantar aesthesiometer (DPA) and the thermonociceptive threshold was determined with an increasing temperature water-bath (ITWB) on the same rats (see below). […] Test compounds were administered p.o. and post-dose touch sensitivity and thermonociceptive thresholds were measured 60 min later. […]
b) The thermonociceptive threshold of the paw was determined with an increasing temperature water bath developed and validated in our laboratories in cooperation with Experimetria Ltd. (Budapest, Hungary). […] The controlling unit has a 30° C. starting temperature, heating rate and a display continuously showing the actual bath temperature measured by a thermocouple at the middle position 35 mm below the water level. […]

melting point [°C] | [35S]GTPγS binding (G-protein activation) [3] [%] | SMILES | inhibition of acute neurogenic inflammatory response (Evans blue accumulation in hindpaw skin) [1] [%] | activity in the analgesic and anti-inflammatory models [2] | effectiveness in inhibiting the decrease of the heat threshold [4] [%]
150.7 to 151.8 | – | Cc1c(C)n(Cc2ccccc2)c2ncnc(NCCc3ccc(N)cc3)c12 [Example 1, [2-(4-Amino-phenyl)-ethyl]-(7-benzyl-5,6-dimethyl-7H-pyrrolo[2,3-d]pyrimidin-4-yl)-amine] | 70.4 | – | –
– | – | COc1ccc(CCNc2ncnc3c2cc(C)n3Cc2ccc(OC)c(OC)c2)cc1OC [compound (a)] | – | totally inactive | –
186.9 to 187.7 | 210.67 | CC(=O)Nc1ccc(CCNc2ncnc3c2c(C)c(C)n3Cc2ccccc2)cc1 [Example 3, N-{4-[2-(7-Benzyl-5,6-dimethyl-7H-pyrrolo[2,3-d]pyrimidin-4-ylamino)-ethyl]-phenyl}-acetamide] | – | – | 18.2
